This is an account of results in paper PMC5464911, “SEL120-34A is a novel CDK8 inhibitor active in AML cells with high levels of serine phosphorylation of STAT1 and STAT5 transactivation domains” (Oncotarget, 2017).

Bounds are passed on as bounds.

For experiment [1], the system named is MOLM-14 cell line. Details: method as in PMID 26416749. Conditions: previously identified; cited from earlier work.
Experiment [2] addresses CDK19/CycC (Homo sapiens, UniProt Q9BWU1). In words: Radiometric protein kinase assay (PanQinase, ProQinase).
Text: (§1) A radiometric protein kinase assay (PanQinase® Activity Assay, ProQinase) was used for measuring activities of CDK8/CycC and CDK19/CycC protein kinases.
For experiment [3], the target named is CDK8/CycC (Homo sapiens, UniProt P49336). The experiment is described as above.
Chain of CDK8/CycC (P49336 whole entry): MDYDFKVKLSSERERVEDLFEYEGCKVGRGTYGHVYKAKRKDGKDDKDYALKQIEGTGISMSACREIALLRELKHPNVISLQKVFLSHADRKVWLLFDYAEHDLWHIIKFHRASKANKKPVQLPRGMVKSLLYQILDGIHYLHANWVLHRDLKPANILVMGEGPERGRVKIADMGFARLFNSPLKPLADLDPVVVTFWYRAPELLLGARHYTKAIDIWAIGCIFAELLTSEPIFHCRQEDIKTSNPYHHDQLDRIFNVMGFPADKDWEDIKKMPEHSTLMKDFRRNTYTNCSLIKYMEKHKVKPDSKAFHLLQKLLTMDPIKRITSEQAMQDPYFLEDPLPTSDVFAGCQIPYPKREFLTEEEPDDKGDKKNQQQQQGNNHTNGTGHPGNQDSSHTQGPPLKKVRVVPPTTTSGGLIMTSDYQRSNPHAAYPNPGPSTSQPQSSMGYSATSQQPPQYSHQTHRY
Chain of CDK8/CycC (P24863 whole entry partner): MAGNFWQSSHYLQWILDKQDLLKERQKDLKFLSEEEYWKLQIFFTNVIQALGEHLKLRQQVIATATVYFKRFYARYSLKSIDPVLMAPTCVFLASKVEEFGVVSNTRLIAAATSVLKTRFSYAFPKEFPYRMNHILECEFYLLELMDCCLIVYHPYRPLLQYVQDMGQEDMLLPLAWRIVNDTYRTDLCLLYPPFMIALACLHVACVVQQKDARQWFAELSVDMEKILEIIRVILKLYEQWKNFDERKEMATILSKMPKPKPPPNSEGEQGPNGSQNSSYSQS
Text: as §1
For experiment [4], the system named is RNAP II CTD S2 and S5. In words: RNAP II CTD phosphorylation in HCT-116 cells (WB). Format: cell-based. Conditions: SEL120-34A up to 2.5 μM. As to the method:
0,1% SDS; 20 mM β-glicerol phosphate; 5 mM NaF; cat. # sc835), α-STAT5-pS726 (1:1000; Abcam, cat. # 1 mM Na3VO4) supplemented with protease inhibitors ab128896), α-STAT5-pY694 (1:1000; Cell Signaling, (Santa Cruz Biotechnology). Tumor samples were cat. #C11C5), α-tubulin (1:4000; Sigma, cat. # T5192) homogenized in 15 sec intervals and kept on ice between and β-actin (1:4000, Sigma cat. # A2066) or GAPDH homogenization cycles. Protein concentration in lysates (1:20000; Sigma, cat. # G9545) was measured by the Bradford assay and adjusted to achieve the same final concentration in each well (20-30 mRNA extraction from xenograft tissue μg protein/well). […] A scoop Unless indicated otherwise, membranes were blocked of a tumor (~25mg) was homogenized with a pestle for 45 min with 2% fat-free dried milk (Rovema, Poland) under liquid nitrogen and immediately processed in Tris-buffered saline (TBS) + 0.05% Tween (TBST), according to the RNeasy Mini Kit protocol (Qiagen). incubated overnight at 4°C with primary antibodies diluted The RNA concentration was measured by a NanoDrop into 2% milk in TBST and washed four times for 10 min spectrophotometer and stored at -80°C for downstream with TBST. […]
with the activities of CDK9 in cells. […] Protein levels of RNAP II CTD pS2, pS5, cMYC and GAPDH were measured by WB.

The test system of experiment [5] is STAT5 S726 and Y694. In words: STAT phosphorylation in SET-2 cells (JAK2 V617F), WB. Conditions: 24 hours. Format: cell-based. As to the method:
(B) SEL120-34A inhibits IFN-dependent phosphorylation of STAT1 S727. HCT-116 cells stimulated with IFNg for 4 h were treated with increasing doses of SEL120-34A, Flavopiridol (F) or vehicle DMSO (C) to determine changes in the phosphorylation of STAT1 S727 and Y701, as measured by WB. (*) unspecific band. (C) SEL120-34A inhibits serine phosphorylation of STAT1 S727 and STAT5 S726, whereas Ruxolitinib inhibits tyrosine phosphorylation of STAT1 Y701 and STAT5 Y694 in JAK2 V617F cells. SET-2 cells were treated with Ruxolitinib, SEL120-34A or vehicle DMSO (C) for 24 hours and protein levels of pS727, pY701 STAT1 and pS726, pY694 STAT5 were measured by WB. […]
0,1% SDS; 20 mM β-glicerol phosphate; 5 mM NaF; cat. # sc835), α-STAT5-pS726 (1:1000; Abcam, cat. # 1 mM Na3VO4) supplemented with protease inhibitors ab128896), α-STAT5-pY694 (1:1000; Cell Signaling, (Santa Cruz Biotechnology). […] Protein concentration in lysates (1:20000; Sigma, cat. # G9545) was measured by the Bradford assay and adjusted to achieve the same final concentration in each well (20-30 mRNA extraction from xenograft tissue μg protein/well). […] Prior to microarray analyses, the quality of the incubation with secondary donkey anti-rabbit antibodies RNA samples was determined using an Agilent 2100 conjugated to HRP, used at 1:4000 (Cell Signaling, Bioanalyzer (Agilent Technologies, CA, USA). […]

In experiment [6] the test system is Kasumi-1. In words: Extended viability test (AlamarBlue). It counts as cell-based. Conditions: Homo sapiens, extended viability assay.
The test system of experiment [7] is PL-21. The experiment can be described thus: Extended viability test (AlamarBlue). Format: cell-based. Conditions: extended viability assay.
Experiment [8] has as its system KG-1. In words: Extended viability test (AlamarBlue). Format: cell-based. Conditions: Homo sapiens, extended viability assay.
Experiment [9] has as its system SKM-1. The experiment can be described thus: Extended viability test (AlamarBlue). Format: cell-based. Conditions: Homo sapiens, extended viability assay.
Experiment [10] relates to MOLM13. In words: Extended viability test (AlamarBlue). It counts as cell-based. Conditions: Homo sapiens, MOLM-13; extended viability assay.
The subject of experiment [11] is ME-1. The experiment can be described thus: Extended viability test (AlamarBlue). Format: cell-based. Conditions: extended viability assay.
The subject of experiment [12] is AML cell lines. The experiment can be described thus: Broad profiling in a panel of AML cell lines (extended viability tests). Format: cell-based. Conditions: SKNO-1, KG-1, HEL-60, MOLM-16, MV-4-11, OciAML-2, MOLM-6 and OciAML-3; read-out: GI50 in sensitive responder cell lines. As to the method:
Mean GI50 (day 10) is shown and plotted on the graph (n=3). (D) Levels of phosphorylated STAT5 S726 and […] in AML cells from the panel C were measured by WB. Densitometry for STAT5 S726 and […] signals is shown and plotted on the graph. Cell lines from the panel D were divided into two classes based on the sensitivity to CDK8 inhibitors treatment (responders GI50<1 μM and non-responder GI50>1 μM), mean levels of STAT5 S726 (E) or STAT1 S727 (F) in selected cell lines measured by densitometry were presented on scatter plots. Differences between responder and non-responder were assessed by t-tests (p value is shown).
Cells grown in suspension were plated onto 96-well culture dishes in triplicate at 20000 cells per well in 200 μl of their culture medium, except Kasumi-1 cells, which were plated at 60 000/well. Cells were incubated in the presence of vehicle, 1 μM docetaxel (positive control, Santa Cruz Biotechnology) or 6 serially - diluted concentrations of tested compound. The compound effect was determined by AlamarBlue measurement. On days 3, 6-7 and 10, an equal volume from all wells was also split-back with fresh media supplemented with tested compound, resulting in a cell density for the vehicle well that matched the initial seeding density. […]

Experiment [13] deals with Oci-AML3. The experiment can be described thus: Extended viability test (AlamarBlue). Format: cell-based. Conditions: Homo sapiens, OCI-AML-3; extended viability assay.
The test system of experiment [14] is Oci-AML5. The experiment can be described thus: Extended viability test (AlamarBlue). Format: cell-based. Conditions: Homo sapiens, OCI-AML-5; extended viability assay.
The subject of experiment [15] is MOLM16. The experiment can be described thus: Extended viability test (AlamarBlue). It counts as cell-based. Conditions: extended viability assay.
The subject of experiment [16] is GDM-1. The experiment can be described thus: Extended viability test (AlamarBlue). Format: cell-based. Conditions: Homo sapiens, extended viability assay.
Experiment [17] relates to MV4-11. The experiment can be described thus: Extended viability test (AlamarBlue). Format: cell-based. Conditions: Homo sapiens, extended viability assay.
Experiment [18] concerns SIG-M5. In words: Extended viability test (AlamarBlue). It counts as cell-based. Conditions: Homo sapiens, extended viability assay.
Experiment [19] relates to EOL-1. In words: Extended viability test (AlamarBlue). Conditions: Homo sapiens, EOL1; extended viability assay. Format: cell-based.

Chain of CDK19/CycC (Q9BWU1 whole entry): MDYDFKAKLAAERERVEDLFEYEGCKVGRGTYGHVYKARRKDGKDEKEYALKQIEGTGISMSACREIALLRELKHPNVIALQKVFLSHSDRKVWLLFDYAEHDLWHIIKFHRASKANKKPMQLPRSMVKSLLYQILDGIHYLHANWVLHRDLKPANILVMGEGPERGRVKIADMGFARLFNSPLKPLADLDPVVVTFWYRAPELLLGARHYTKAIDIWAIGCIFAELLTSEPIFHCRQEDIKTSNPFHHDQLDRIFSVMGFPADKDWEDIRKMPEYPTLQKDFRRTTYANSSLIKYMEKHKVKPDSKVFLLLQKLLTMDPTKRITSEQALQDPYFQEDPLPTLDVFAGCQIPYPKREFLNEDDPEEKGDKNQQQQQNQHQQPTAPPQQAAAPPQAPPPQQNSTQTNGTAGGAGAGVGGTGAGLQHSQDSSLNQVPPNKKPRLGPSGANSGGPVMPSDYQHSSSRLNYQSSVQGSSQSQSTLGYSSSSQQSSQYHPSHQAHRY
Chain of CDK19/CycC (P24863 whole entry partner): as the sequence (P24863 whole entry partner) above

`CN(C)[C@H]1C[C@@]23CC[C@@]4(O2)C(=CC[C@]2(C)[C@@H](c5ccc6ccncc6c5)CC[C@H]24)C=C3[C@@H](O)[C@@H]1O` [CA, Cortistatin A]: in experiment [1], the “sensitivity of MOLM-14 cell line to treatment” value is on record as “sensitive”.

Regarding `Cn1cc(-c2ccc(-c3cncc(Cl)c3N3CCC4(CCNC4=O)CC3)cc2)cn1` [CCT251545, reference compound], the concentration for half-maximal inhibition (IC50) in [2] was 14.4 nM; in experiment [3], 4.2 nM.

As for `CN1CC[C@H](c2c(O)cc(O)c3c(=O)cc(-c4ccccc4Cl)oc23)[C@H](O)C1` [Flavopiridol, reference compound], the “RNAP II CTD phosphorylation at S2 and S5” value in [4] was “active”.

Turning to `N#CC[C@H](C1CCCC1)n1cc(-c2ncnc3[nH]ccc23)cn1` [Ruxolitinib, reference compound], in experiment [5], the “STAT5 S726 phosphorylation” value is recorded as “unaffected” and the “STAT5 Y694 phosphorylation” value is listed as “inhibition”.

In the case of `CN1CCN(C(=O)c2ccc3cc(CCNc4ncnc5ccc(C#N)cc45)ccc3c2)CC1` [Senexin B, reference compound], the concentration for 50% growth inhibition (GI50) in experiment [6] was determined as 5000 nM; in [7], 2600 nM; in experiment [8], 150 nM; in [9] it was 5000 nM; in experiment [10], 5000 nM; in experiment [11] it was 170 nM. Further, the 50% growth inhibitory concentration (GI50) is less than 1000 nM in [12]; 360 nM in [13]; 70 nM in experiment [14]; 340 nM in [15]; 270 nM in experiment [16]; 230 nM in experiment [17]. Moreover, the figures for the GI50 in experiment [18] and in experiment [19] were 5000 nM and 960 nM, respectively. In addition, the 50% inhibitory concentration (IC50) in experiment [3] is 17.3 nM.
